This is an account of results in ChEMBL document CHEMBL5576099, “Isolation, Characterization, and Antiproliferative Activity of Terpenoids from the Tropical Plant Turraea delphinensis” (J Nat Prod, 2024).

Common to all, as to format: functional, cell-based
For one assay, the system named is A549. As to the kind of experiment: Antiproliferative activity against human A549 cells assessed as reduction in cell viability by SRB assay. (In general: In SRB staining, fixed cells bind dye roughly in proportion to their protein.)
A further assay deals with MDA-MB-231. As to the kind of experiment: Antiproliferative activity against human MDA-MB-231 cells assessed as reduction in cell viability by SRB assay.
In the next assay the test system is MCF7. Nature of the assay: Antiproliferative activity against human MCF7 cells assessed as reduction in cell viability by SRB assay.
For another assay, the system named is KB. As to the kind of experiment: Antiproliferative activity against human KB cells assessed as reduction in cell viability by SRB assay.
A short description of assay [1]: Antiproliferative activity against human KB-VIN cells over expressing p-gp assessed as reduction in cell viability by SRB assay. Particulars: KBVIN.

A word on the IC50: it is the concentration that gives 50% inhibition.

Each structure is given as a SMILES string.

As for `CC(C)=CCC[C@]1(C)[C@H]2[C@@H]3[C@H](C)CC[C@H]3[C@](C)(O)CC[C@H]21`, the half-inhibitory concentration (IC50) in the assay with A549 was 8.9 µM; in the assay on MDA-MB-231, more than 10 µM; with MCF7, more than 10 µM; in the assay with KB, 8.9 µM; in assay [1], more than 10 µM.

Regarding `CC(C)=C[C@@H]1C[C@H]([C@H]2CC[C@@]3(C)[C@@H]4CC[C@H]5C(C)(C)C(=O)CC[C@@]56C[C@@]46CC[C@]23C)CO1`, the IC50 (with A549; with MDA-MB-231; in the assay on MCF7; in the assay with KB; in assay [1]) was more than 10 µM in each case.

`CC(C)CC(=O)[C@@H](O)[C@H](C)[C@@H]1CC[C@]2(C)C3=CC[C@H]4C(C)(C)C(=O)CC[C@]4(C)[C@H]3CC[C@@]12C`: the IC50 (in the assay on A549; in the assay on MDA-MB-231; in the assay on MCF7; with KB; in assay [1]) was more than 10 µM throughout.

In the case of `C[C@H](C/C=C/C(C)(C)O)[C@H]1CC[C@@]2(C)[C@@H]3CC[C@H]4C(C)(C)C(=O)CC[C@@]45C[C@@]35CC[C@]12C`, the IC50 in the assay on A549 was 9.6 µM; with MDA-MB-231, more than 10 µM; with MCF7, more than 10 µM; with KB, more than 10 µM; in assay [1], more than 10 µM.

In the case of `CC(=O)O[C@H]1[C@@H](OC(C)=O)[C@@]2(C)C3=CC[C@@H]([C@H]4COC(=O)C4)[C@]3(C)CC[C@@H]2[C@@]2(C)[C@@H](O)C[C@@H](O)C(C)(C)[C@H]12`, the 50% inhibitory concentration (IC50) (in the assay on A549; in the assay with MDA-MB-231; with MCF7; in the assay with KB; in assay [1]) was more than 10 µM each time.

As for `CC(C)=CC(=O)C[C@@H](C)[C@H]1CC[C@@]2(C)[C@@H]3CC[C@H]4C(C)(C)[C@@H](O)CC[C@@]45C[C@@]35CC[C@]12C`, the IC50 (in the assay on A549; with MDA-MB-231; in the assay on MCF7; in the assay on KB; in assay [1]) was more than 10 µM each time.

With `CC1(C)OCC([C@@H]2CC[C@]3(C)C4=CC[C@H]5C(C)(C)C(=O)CC[C@]5(C)[C@H]4CC[C@@]23C)C[C@@H](O)[C@@H]1O` (stereo partly drawn), the 50% inhibitory concentration (IC50) was 8.3 µM in the assay on A549; more than 10 µM in the assay on MDA-MB-231; more than 10 µM in the assay with MCF7; 9.5 µM in the assay with KB; 7.9 µM in assay [1].

Take `C[C@@H]([C@@H]1O[C@@H]1[C@@H]1OC1(C)C)[C@@H]1CC[C@]2(C)C3=CC[C@H]4C(C)(C)C(=O)CC[C@]4(C)[C@H]3CC[C@@]12C`: the IC50 with A549 is 5.4 µM; in the assay with MDA-MB-231, more than 10 µM; in the assay with MCF7 it was more than 10 µM; with KB, 8.1 µM; in assay [1], 8.3 µM.

Turning to `CC(=O)O[C@H]1C(=O)[C@@]2(C)[C@H]([C@H](OC(=O)c3ccccc3)[C@]3(O)C[C@H](OC(=O)[C@H](O)[C@@H](NC(=O)c4ccccc4)c4ccccc4)C(C)=C1C3(C)C)[C@]1(OC(C)=O)CO[C@@H]1C[C@@H]2O` [PACLITAXEL], the IC50 with MDA-MB-231 turned out to be 0.0084 µM; in the assay on KB it was 0.0071 µM; in assay [1] it was 2.21 µM.

On to `CC(C)=C[C@H](O)C[C@@H](CO)[C@H]1CC[C@@]2(C)[C@@H]3CC[C@H]4C(C)(C)C(=O)CC[C@@]45C[C@@]35CC[C@]12C` (mixture of isomers), for which the IC50 with A549 is more than 10 µM; in the assay with MDA-MB-231, more than 10 µM; in the assay on MCF7, more than 10 µM; in the assay on KB, more than 10 µM; in assay [1], 9.9 µM.

On to `CC(C)=C[C@H]1C[C@H]([C@H]2CC[C@@]3(C)[C@@H]4CC[C@H]5C(C)(C)C(=O)CC[C@@]56C[C@@]46CC[C@]23C)CO1`, for which the IC50 (in the assay with A549; with MDA-MB-231; with MCF7; with KB; in assay [1]) was more than 10 µM throughout.

Consider `C=C1CC[C@@H]2[C@H]([C@H]3[C@@H]1CC[C@]3(C)O)[C@@]2(C)CCC=C(C)C`, for which the concentration for half-maximal inhibition (IC50) (in the assay on A549; in the assay with MDA-MB-231; in the assay with MCF7; in the assay with KB; in assay [1]) was more than 10 µM in each case.

For the compound `C[C@@H](C[C@@H](O)[C@@H]1OC1(C)C)[C@@H]1CC[C@]2(C)C3=CC[C@H]4C(C)(C)[C@@H](O)CC[C@]4(C)[C@H]3CC[C@@]12C` [DIHYDRONILOTICIN], the IC50 in the assay on A549 amounted to 5.2 µM; in the assay on MDA-MB-231 it was 4.7 µM; with MCF7, 7.2 µM; in the assay on KB it was 4.8 µM; in assay [1], 5.1 µM.

Turning to `C[C@H](C/C=C/C(C)(C)O)[C@H]1CC[C@@]2(C)[C@@H]3CC[C@H]4C(C)(C)[C@H](O)CC[C@@]45C[C@@]35CC[C@]12C`, the IC50 in the assay with A549 is more than 10 µM; with MDA-MB-231 it was 9.3 µM; in the assay on MCF7, more than 10 µM; in the assay on KB it was more than 10 µM; in assay [1], more than 10 µM.

For `CC1(C)C(=O)CC[C@@]2(C)C1CC=C1[C@@H]2CC[C@@]2(C)[C@H](C3CO[C@@H](C(C)(C)O)[C@H](O)C3)CC[C@]12C` (stereo partly drawn), the IC50 (in the assay on A549; in the assay with MDA-MB-231; in the assay on MCF7; in the assay with KB; in assay [1]) was more than 10 µM throughout.

In the case of `C[C@@H](C[C@@H](O)[C@@H]1OC1(C)C)[C@@H]1CC[C@]2(C)C3=CC[C@H]4C(C)(C)C(=O)CC[C@]4(C)[C@H]3CC[C@@]12C`, the 50% inhibitory concentration (IC50) came out at 5.9 µM with A549; 7.1 µM in the assay on MDA-MB-231; 6.9 µM with MCF7; 4.6 µM in the assay on KB; 6.1 µM in assay [1].

Consider `C=C[C@]1(C)C=C2C(CC1)[C@@]1(C)CCCC(C)(C)C1C[C@@H]2O` (stereo partly drawn), for which the IC50 (with A549; with MDA-MB-231; in the assay on MCF7; in the assay on KB; in assay [1]) was more than 10 µM throughout.

As to `C[C@H](C[C@@H](O)[C@@H]1OC1(C)C)[C@H]1CC[C@@]2(C)[C@@H]3CC[C@H]4C(C)(C)C(=O)CC[C@@]45C[C@@]35CC[C@]12C` (relative stereo), the concentration for half-maximal inhibition (IC50) (with A549; in the assay on MDA-MB-231; with MCF7; in the assay on KB; in assay [1]) was more than 10 µM in each case.

As to `C[C@H]([C@H]1OC(C)(C)[C@@H](O)[C@@H]1O)[C@@H]1CC[C@]2(C)C3=CC[C@H]4C(C)(C)C(=O)CC[C@]4(C)[C@H]3CC[C@@]12C` (relative stereo), the IC50 (in the assay with A549; with MDA-MB-231; with MCF7; in the assay on KB; in assay [1]) was more than 10 µM each time.

In the case of `CC(C)=CC(O)C[C@H](C)[C@@H]1CC[C@]2(C)C3=CCC4C(C)(C)[C@@H](O)CC[C@]4(C)[C@H]3CC[C@@]12C` (stereo partly drawn), the half-inhibitory concentration (IC50) (with A549; with MDA-MB-231; with MCF7; with KB; in assay [1]) was more than 10 µM each time.

Consider `CC(C)=CCC[C@@H](CO)[C@H]1CC[C@@]2(C)[C@@H]3CC[C@H]4C(C)(C)C(=O)CC[C@@]45C[C@@]35CC[C@]12C`, for which the half-maximal inhibitory concentration (IC50) is 6.5 µM in the assay on A549; 7.4 µM with MDA-MB-231; more than 10 µM in the assay with MCF7; 3.9 µM in the assay with KB; 6.2 µM in assay [1].

In the case of `C[C@@H]([C@H](O)/C=C/C(C)(C)O)[C@@H]1CC[C@]2(C)C3=CC[C@H]4C(C)(C)C(=O)CC[C@]4(C)[C@H]3CC[C@@]12C`, the IC50 with A549 is more than 10 µM; in the assay with MDA-MB-231, more than 10 µM; in the assay with MCF7, more than 10 µM; in the assay on KB it was 9 µM; in assay [1], 9.5 µM.

Consider `CC(C)=CC(=O)C[C@@H](C)[C@H]1CC[C@@]2(C)[C@@H]3CC[C@H]4C(C)(C)C(=O)CC[C@@]45C[C@@]35CC[C@]12C`, for which the IC50 (in the assay on A549; with MDA-MB-231; in the assay on MCF7; in the assay on KB; in assay [1]) was more than 10 µM throughout.

For `CC(C)(O)[C@@H]1CC[C@H]([C@H]2CC[C@@]3(C)[C@@H]4CC[C@H]5C(C)(C)C(=O)CC[C@@]56C[C@@]46CC[C@]23C)CO1` (relative stereo), the IC50 in the assay on A549 is 9.1 µM; in the assay on MDA-MB-231, more than 10 µM; with MCF7 it was more than 10 µM; in the assay on KB it was more than 10 µM; in assay [1], more than 10 µM.

Regarding `C=C[C@]1(C)C=C2C(=O)CC3C(C)(C)CCC[C@]3(C)C2CC1` (stereo partly drawn), the IC50 (in the assay on A549; in the assay on MDA-MB-231; with MCF7; in the assay with KB; in assay [1]) was more than 10 µM throughout.

On to `C[C@@H](C[C@@H](O)[C@H](O)C(C)(C)O)[C@@H]1CC[C@]2(C)C3=CC[C@H]4C(C)(C)[C@@H](O)CC[C@]4(C)[C@H]3CC[C@@]12C`, for which the IC50 is 8 µM in the assay with A549; more than 10 µM in the assay with MDA-MB-231; more than 10 µM in the assay on MCF7; 8.2 µM in the assay with KB; 9.7 µM in assay [1].
